The values below come from patent US3932459A, “Novel cyclopropanecarboxylic acid esters” (Sumitomo Chemical Company, Limited, priority 1973, dated 1976).

Data set [1] relates to fourth instar larvae of diamond-back moth (Plutella maculipennis). Nature of the data set: Emulsifiable concentrate sprayed on chinese cabbage leaves, diamond-back moth larvae (Experiment 2). Format: in vivo. The note with it: for LC50: Plutella, 48 h, 20% emulsifiable concentrate diluted with water, after 2 days, read-out: LC50 (50% lethal concentration); for Relative efficacy: corresponding chrysanthemic acid ester (control) = 1.0. The method, then:
Each of the present compounds (1), (2) and (5), and the corresponding chrysanthemic acid esters were individually formulated into a 20% emulsifiable concentrate by usual methods.
10 ml of each of the emulsifiable concentrates which had been diluted with water to the required concentration were sprayed on to four leaves of chinese cabbage grown up to a 3- to 4-leave stage. Then the leaves were placed in a glass Petri dish of 14 cm in diameter and 7 cm high, and 10 fourth instar larvae of diamond-back moth (Plutella maculipennis) were liberated therein. After 2 days, the dead and alive were counted.

Data set [2] concerns green rice leafhoppers (Nephotettix cincpriceps). Kind of data set: Knock-down of green rice leafhoppers on treated rice seedlings (Experiment 3). Format: in vivo. The note with it: 400-fold aqueous diluted solution of 20% emulsifiable concentrate. The method, then:
Each of the present compounds (1) to (7), and the corresponding chrysanthemic acid esters were individually formulated into a 20% emulsifiable concentrate by usual methods.
About 20 rice seedlings were grown up to a 3- to 4-leave stage in a flower pot of 10 cm in diameter, and the 400-fold aqueous diluted solution of each emulsifiable concentrate was applied thereto by means of a turn table.
After air-drying, each pot was placed in a 5 liter glass beaker and covered with gauze at the top. Then, 20 green rice leafhoppers (Nephotettix cincpriceps) were liberated therein and the number of knocked down insects were counted at definite time intervals.

For data set [3], the system named is house-fly adults (Musca domestica). Nature of the data set: Oil spray, Campbel's turn table apparatus, house-fly adults (Experiment 1). Format: in vivo. The note with it: for LC50: Musca domestica, read-out: LC50 (50% lethal concentration); for Relative efficacy: corresponding dl-trans-chrysanthemic acid ester (control) = 1.0. The method, then:
The dl-trans isomer of each of the present compounds (1), (2), (4) and (7), and the corresponding dl-trans-chrysanthemic acid esters were individually dissolved in deodorized kerosene to prepare oil sprays of required concentration.
5 ml of each of the oil sprays were sprayed, using Campbel's turn table apparatus ("Soap and Sanitary Chemicals," Vol. 14, No. 6, 119, 1938). Twenty seconds after spraying, the shutter was opened, and about 100 house-fly adults (Musca domestica) per group were exposed to the descending mist for 10 minutes and then transferred to the observation cage. In the cage, the flies were fed and allowed to stand for one day at room temperature.
Thereafter, the number of killed flies was counted to calculate the mortality thereof.

The next data set deals with insects. The note with it: J. Farkas et al., Chem. Listy 52, 688, 1958; cited from earlier work.

Converted amounts (≈) assume the structure as drawn.

For the compound `CC(C)=CC1C(C(=O)OCc2ccc(Cc3ccccc3)s2)C1(C)C` (stereo not shown), in data set [1], the LC50 amounted to 85 µg/mL (≈ 240 µM) and the Relative efficacy amounted to 1.0. Further, the “KT50 (a time required for 50% knock-down)” value in data set [2] is 37 min. The corresponding values for `CC(C)=CC1C(C(=O)OCc2ccc(Oc3ccccc3)s2)C1(C)C` (stereo not shown) are 97 µg/mL (≈ 272 µM), 1.0 and 45 min. In the case of `CC(C)=CC1C(C(=O)OCc2csc(Cc3ccccc3)c2)C1(C)C` (stereo not shown), the “KT50 (a time required for 50% knock-down)” value in data set [2] was found to be 53 min. The same measure, in the same setting: in the case of `CC(C)=CC1C(C(=O)OCc2cc3c(s2)CCCC3)C1(C)C` (stereo not shown) it was 46 min. Turning to `CC(C)=CC1C(C(=O)OCc2cc3c(s2)CCC3)C1(C)C` (stereo not shown), in data set [1], the LC50 was determined as 114 µg/mL (≈ 374 µM) and the Relative efficacy is listed as 1.0. The “KT50 (a time required for 50% knock-down)” value in data set [2] came to 43 min. Regarding `C=CCc1ccc(COC(=O)C2C(C=C(C)C)C2(C)C)s1` (stereo not shown), the “KT50 (a time required for 50% knock-down)” value in data set [2] is 40 min.

As to `C#CCc1ccc(COC(=O)C2C(C=C(C)C)C2(C)C)s1` (stereo not shown), in data set [2], the “KT50 (a time required for 50% knock-down)” value was 38 min. Still for that read-out and setting: with `CC(C)=CC1C(C(=O)OCc2ccc(C3C=CCC3)s2)C1(C)C` (stereo not shown) the figure was 40 min. `CC(C)=C[C@@H]1[C@@H](C(=O)OCc2ccc(Cc3ccccc3)s2)C1(C)C` (relative stereo): the LC50 in data set [3] (24 h) stood at 386 µg/mL (≈ 1090 µM). In data set [3], this compound displayed a Relative efficacy of 1.0. The corresponding values for `CC(C)=C[C@@H]1[C@@H](C(=O)OCc2cc3c(s2)CCCC3)C1(C)C` (relative stereo) are 834 µg/mL (≈ 2620 µM) and 1.0. On to `CC(C)=C[C@@H]1[C@@H](C(=O)OCc2ccc(Oc3ccccc3)s2)C1(C)C` (relative stereo), for which the LC50 in data set [3] (24 h) was determined as 540 µg/mL (≈ 1510 µM). The compound further had a Relative efficacy in data set [3] of 1.0.

For `C#CCc1ccc(COC(=O)[C@@H]2[C@@H](C=C(C)C)C2(C)C)s1` (relative stereo), the LC50 in data set [3] (24 h) was found to be 858 µg/mL (≈ 2840 µM). In data set [3], this compound displayed a Relative efficacy of 1.0.

On to `CC1(C)[C@H](C=C(Cl)Cl)[C@H]1C(=O)OCc1ccc(Cc2ccccc2)s1` (relative stereo) [dl-Trans isomer of present compound (1), 5-benzyl-2-thenyl 2',2'-dimethyl-3'-(2",2"-dichlorovinyl)-cyclopropanecarboxylate], for which the LC50 in data set [3] (24 h) is 90 µg/mL (≈ 228 µM). In data set [3], this compound had a Relative efficacy of 4.3. In the same order, the values of `CC1(C)[C@H](C=C(Cl)Cl)[C@H]1C(=O)OCc1ccc(Oc2ccccc2)s1` (relative stereo) [dl-Trans isomer of present compound (2), 5-Phenoxy-2-thenyl 2',2'-dimethyl-3'-(2",2"-dichlorovinyl)-cyclopropanecarboxylate] are 135 µg/mL (≈ 340 µM) and 4.0. In the same order, the values of `CC1(C)[C@H](C=C(Cl)Cl)[C@H]1C(=O)OCc1cc2c(s1)CCCC2` (relative stereo) [dl-Trans isomer of present compound (4), 4-5-Tetramethylene-2-thenyl 2',2'-dimethyl-3'-(2",2"-dichlorovinyl)-cyclopropanecarboxylate] are 217 µg/mL (≈ 604 µM) and 3.8. In the same order, the values of `C#CCc1ccc(COC(=O)[C@@H]2[C@@H](C=C(Cl)Cl)C2(C)C)s1` (relative stereo) [dl-Trans isomer of present compound (7), 5-Propargyl-2-thenyl 2',2'-dimethyl-3'-(2",2"-dichlorovinyl)-cyclopropanecarboxylate] are 205 µg/mL (≈ 597 µM) and 4.2. `CC1(C)C(C=C(Cl)Cl)C1C(=O)OCc1ccc(Cc2ccccc2)s1` (stereo not shown) [Present compound (1), 5-benzyl-2-thenyl 2',2'-dimethyl-3'-(2",2"-dichlorovinyl)-cyclopropanecarboxylate]: in data set [1], the LC50 came out at 28 µg/mL (≈ 70.8 µM) and the Relative efficacy amounted to 3.0. For the same compound, the “KT50 (a time required for 50% knock-down)” value in data set [2] worked out at 17 min. The corresponding values for `CC1(C)C(C=C(Cl)Cl)C1C(=O)OCc1ccc(Oc2ccccc2)s1` (stereo not shown) [Present compound (2), 5-Phenoxy-2-thenyl 2',2'-dimethyl-3'-(2",2"-dichlorovinyl)-cyclopropanecarboxylate] are 37 µg/mL (≈ 93.1 µM), 2.6 and 28 min.

`CC1(C)C(C=C(Cl)Cl)C1C(=O)OCc1csc(Cc2ccccc2)c1` (stereo not shown) [Present compound (3), 5-Benzyl-3-thenyl 2',2'-dimethyl-3'-(2",2"-dichlorovinyl)-cyclopropanecarboxylate]: the “KT50 (a time required for 50% knock-down)” value in data set [2] worked out at 30 min.

For the compound `CC1(C)C(C=C(Cl)Cl)C1C(=O)OCc1cc2c(s1)CCCC2` (stereo not shown) [Present compound (4), 4-5-Tetramethylene-2-thenyl 2',2'-dimethyl-3'-(2",2"-dichlorovinyl)-cyclopropanecarboxylate], the “KT50 (a time required for 50% knock-down)” value in data set [2] is 24 min.

Turning to `CC1(C)C(C=C(Cl)Cl)C1C(=O)OCc1cc2c(s1)CCC2` (stereo not shown) [Present compound (5), 4,5-Trimethylene-2-thenyl 2',2'-dimethyl-3'-(2",2"-dichlorovinyl)-cyclopropanecarboxylate], in data set [1], the LC50 is 47 µg/mL (≈ 136 µM) and the Relative efficacy is listed as 2.4. In addition, the “KT50 (a time required for 50% knock-down)” value in data set [2] worked out at 21 min.

Turning to `C=CCc1ccc(COC(=O)C2C(C=C(Cl)Cl)C2(C)C)s1` (stereo not shown) [Present compound (6), 5-Allyl-2-thenyl 2',2'-dimethyl-3'-(2",2"-dichlorovinyl)-cyclopropanecarboxylate], in data set [2], the “KT50 (a time required for 50% knock-down)” value is 19 min.

Turning to `C#CCc1ccc(COC(=O)C2C(C=C(Cl)Cl)C2(C)C)s1` (stereo not shown) [Present compound (7), 5-Propargyl-2-thenyl 2',2'-dimethyl-3'-(2",2"-dichlorovinyl)-cyclopropanecarboxylate], the “KT50 (a time required for 50% knock-down)” value in data set [2] turned out to be 15 min. Same read-out and setting: with `CC1(C)C(C=C(Cl)Cl)C1C(=O)OCc1ccc(C2C=CCC2)s1` (stereo not shown) [Present compound (8), 5-(2'-cyclopentene-1'-yl)-2-thenyl 2",2"-dimethyl-3"-(2"',2"'-dichlorovinyl)-cyclopropanecarboxylate] the figure was 19 min. Consider `C=CCC1=C(C)C(OC(=O)C2C(C=C(Cl)Cl)C2(C)C)CC1=O` (stereo not shown) [allethronyl ester of the acid], for which the insecticidal activity result in the data set with insects is “close to that of chrysanthemic acid ester”. Consider Pyrethrin, for which the “LC50 (50% lethal concentration)” value in data set [3] (house fly, in vivo, 24 h) is 216 mg/100 ml.
